Results on 14 molecules are retold here after patent US11130769B2 (Prelude Therapeutics Incorporated, priority 2018, dated 2021).

Read-outs that look alike come from different tables or passages of the source.

For assay [1], the target named is MCL-1 (Homo sapiens (Human), UniProt Q07820). As to the kind of experiment: Cell free Mcl-1:Bim affinity assay (fluorescence polarization competition). It counts as binding. Particulars: 15 nM MCL-1, 5 nM FITC-Bim, 1 hour at room temperature, read-out: BIM_Ki. Here is the method:
The binding affinity of each compound was measured via a fluorescence polarization competition assay, in which the compound competes for the same binding site with the ligand, and thus leads to a dose-dependent anisotropy reduction. The tracer ligand utilized was a fluorescein isothiocyanate labelled peptide (FITC-[…]) derived from Bim (GenScript).
The assay was carried out in black half-area 96-well NBS plate (Corning), containing 15 nM of MCL-1 (BPS Bioscience), 5 nM of FITC-Bim and 3-fold serial diluted test compounds in a total volume of 50 μL of assay buffer (20 mM HEPES, 50 mM NaCl, 0.002% Tween 20, 1 mM TCEP, and 1% DMSO). The reaction plate was incubated for 1 hour at room temperature. The change of anisotropy is measured with an Envision multimode plate reader (PerkinElmer) at emission wavelength 535 nm. Fluorescence polarization was calculated in mP unit and the percentage inhibition was calculated by % inhibition=100×(mPDMSO−mP)/(mPDMSO−mPPC), in which mPDMSO is the DMSO control, and mPpc is the positive control. IC50 values were determined from a 10-point dose response curve by fitting the percent inhibition against compound concentration using the GraphPad Prism software. The inhibition constant Ki was subsequently calculated according to the Nikolovska-Coleska's equation (Anal. Biochem., 2004, 332, 261),
[formula] • where [I]50 is the concentration of the free inhibitor at 50% inhibition, [L]50 is the concentration of the free labeled ligand at 50% inhibition, [P]0 is the concentration of the free protein at 0% inhibition, and Kd is the dissociation constant of the protein-ligand complex. See Table F. Caspase 3/7 Activity Assay

Assay [2] has as its system H929 cells. The assay can be described thus: Cell viability assay (H929 10 FBS). It counts as cell-based. Particulars: Homo sapiens, NCI-H929, 24 hours, read-out: H929_10FBS IC50. As for the experimental part: Cell Viability Assay (H929 10 FBS)
Dispense 10 μL aliquot of prepared H929 cells (1:1 ratio of cells:Trypan Blue (#1450013, Bio-Rad)) onto cell counting slide (#145-0011, Bio-Rad) and obtain cell density and cell viability using cell counter (TC20, Bio-Rad). Remove appropriate volume of resuspended cells from culture flask to accommodate 4000 cells/well @ 10 μL/well. Transfer H929 cells to 50 mL conical (#430290, Corning). Spin down at 1000 rpm for 5 min using tabletop centrifuge (SPINCHRON 15, Beckman). Discard supernatant and resuspend cell pellet in modified RPMI 1640 (#10-040-CV, Corning) cell culture media containing 10% FBS (F2422-500 ML, Sigma), sodium pyruvate (100 mM) (#25-000-CL, Corning), HEPES buffer (1 M) (#25-060-CL, Corning) and glucose (200 g/L) (A24940-01, Gibco) to a cell density of 400,000 cells/mL. Dispense 10 μL of resuspended H929 cells per well in 384-well small volume TC treated plate (#784080, Greiner Bio-one) using standard cassette (#50950372, Thermo Scientific) on Multi-drop Combi (#5840310, Thermo Scientific) in laminar flow cabinet. Dispense compounds onto plates using digital liquid dispenser (D300E, Tecan). Incubate plates in humidified tissue culture incubator @ 37° C. for 24 hours. Add 10 μL of prepared CellTiTer-Glo® detection buffer (G7570, Promega) or ATPlite 1 Step detection reagent (#6016731, Perkin Elmer) to each well of 384-well plate using small tube cassette (#24073295, Thermo Scientific) on Combi multi drop, incubate @ RT for 30-60 min. Read plates with microplate reader (PheraStar, BMG Labtech) using 384 well luminescence mode.

Chain of MCL-1 (Q07820 whole entry): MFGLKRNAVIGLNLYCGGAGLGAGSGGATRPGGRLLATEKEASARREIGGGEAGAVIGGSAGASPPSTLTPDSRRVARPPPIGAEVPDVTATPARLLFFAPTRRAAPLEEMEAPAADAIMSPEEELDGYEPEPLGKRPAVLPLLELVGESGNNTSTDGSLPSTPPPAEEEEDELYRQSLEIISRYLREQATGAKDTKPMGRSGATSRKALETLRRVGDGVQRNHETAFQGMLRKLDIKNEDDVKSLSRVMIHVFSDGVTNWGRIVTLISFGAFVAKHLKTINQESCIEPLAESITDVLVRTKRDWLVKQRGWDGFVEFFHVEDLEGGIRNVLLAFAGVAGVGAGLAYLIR

As usually defined, the IC50 is the concentration needed to halve the response being measured. Consider `Cc1ccc(CC(=O)NS(=O)(=O)c2ccc3c(c2)N(CC2CCC2)C[C@@]2(CCCc4cc(Cl)ccc42)CO3)cn1` [Example 17, 2-(6-Methyl-3-pyridyl)-N-[(3S)-6′-chloro-5-(cyclobutylmethyl)spiro[2,4-dihydro-1,5-benzoxazepine-3,1′-tetralin]-7-yl]sulfonyl-acetamide], for which, in assay [1] (numeric values), the Ki worked out at 7.4 nM. Further, the IC50 in assay [2] is more than 1000 nM.

In the case of `C[C@H]1CN(C(=O)O[C@H]2/C=C/COC(C)(C)C(=O)NS(=O)(=O)c3ccc4c(c3)N(C[C@@H]3CC[C@H]32)C[C@@]2(CCCc3cc(Cl)ccc32)CO4)CCN1` [Example 176, [(3R,6R,7S,8E,22S)-6′-Chloro-12,12-dimethyl-13,15,15-trioxo-spiro[11,20-dioxa-15-thia-1,14-diazatetracyclo[14.7.2.03,6.019,24]pentacosa-8,16,18,24-tetraene-22,1′-tetralin]-7-yl] (3S)-3-methylpiperazine-1-carboxylate], the Ki in assay [1] (class symbols) is less than 1 nM. Besides, the IC50 in assay [2] was less than 500 nM.

`CN(C(=O)O[C@H]1/C=C/COC(C)(C)C(=O)NS(=O)(=O)c2ccc3c(c2)N(C[C@@H]2CC[C@H]21)C[C@]1(CO3)OCCc2cc(Cl)ccc21)C1COC1` [Example 298, [(3R,6R,7S,8E,22R)-6′-Chloro-12,12-dimethyl-13,15,15-trioxo-spiro[11,20-dioxa-15-thia-1,14-diazatetracyclo[14.7.2.03,6.019,24]pentacosa-8,16,18,24-tetraene-22,1′-isochromane]-7-yl] N-methyl-N-(oxetan-3-yl)carbamate]: in assay [1] (class symbols), the Ki is less than 1 nM. The IC50 in assay [2] was less than 1000 nM.

As for `COC1CN(CCO[C@H]2/C=C/COC(C)(C)C(=O)NS(=O)(=O)c3ccc4c(c3)N(C[C@@H]3CC[C@H]32)C[C@@]2(CCCc3cc(Cl)ccc32)CO4)C1` [Example 261, (3R,6R,7S,8E,22S)-6′-Chloro-7-[2-(3-methoxyazetidin-1-yl)ethoxy]-12,12-dimethyl-15,15-dioxo-spiro[11,20-dioxa-15-thia-1,14-diazatetracyclo[14.7.2.03,6.019,24]pentacosa-8,16,18,24-tetraene-22,1′-tetralin]-13-one], the Ki in assay [1] (class symbols) is less than 1 nM. Moreover, in assay [2], the concentration for half-maximal inhibition (IC50) was less than 500 nM.

On to `CNCCN(C)C(=O)O[C@H]1/C=C/COC(C)(C)C(=O)NS(=O)(=O)c2ccc3c(c2)N(C[C@@H]2CC[C@H]21)C[C@@]1(CCCc2cc(Cl)ccc21)CO3` [Example 194, [(3R,6R,7S,8E,22S)-6′-Chloro-12,12-dimethyl-13,15,15-trioxo-spiro[11,20-dioxa-15-thia-1,14-diazatetracyclo[14.7.2.03,6.019,24]pentacosa-8,16,18,24-tetraene-22,1′-tetralin]-7-yl] N-methyl-N-[2-(methylamino)ethyl]carbamate], for which the Ki in assay [1] (class symbols) was less than 1 nM. In addition, in assay [2], the IC50 was less than 500 nM.

Regarding `CC1(C)OC/C=C/[C@H](OCC(=O)N[C@@H]2CCOC2)[C@@H]2CC[C@H]2CN2C[C@@]3(CCCc4cc(Cl)ccc43)COc3ccc(cc32)S(=O)(=O)NC1=O` [Example 284, 2-[(3R,6R,7S,8E,22S)-6′-Chloro-12,12-dimethyl-13,15,15-trioxo-spiro[11,20-dioxa-15λ6-thia-1,14-diazatetracyclo[14.7.2.03,6.019,24]pentacosa-8,16,18,24-tetraene-22,1′-tetralin]-7-yl]oxy-N-[(3R)-tetrahydrofuran-3-yl]acetamide], in assay [1] (class symbols), the Ki was less than 1 nM. For the same molecule, the 50% inhibitory concentration (IC50) in assay [2] was less than 500 nM.

Consider `CC1(C)OC/C=C/[C@H](OC(=O)N2CCN(C3COC3)CC2)[C@@H]2CC[C@H]2CN2C[C@@]3(CCCc4cc(Cl)ccc43)COc3ccc(cc32)S(=O)(=O)NC1=O` [Example 187, [(3R,6R,7S,8E,22S)-6′-Chloro-12,12-dimethyl-13,15,15-trioxo-spiro[11,20-dioxa-15-thia-1,14-diazatetracyclo[14.7.2.03,6.019,24]pentacosa-8,16,18,24-tetraene-22,1′-tetralin]-7-yl] 4-(oxetan-3-yl)piperazine-1-carboxylate], for which the Ki in assay [1] (class symbols) was less than 1 nM. Moreover, in assay [2], the concentration for half-maximal inhibition (IC50) was less than 500 nM.

As to `O=C(NS(=O)(=O)c1ccc2c(c1)N(CC1CCC1)CC1(CCCc3cc(Cl)ccc31)CO2)N1CCCC1` (stereo not shown) [Example 24, N-[6′-Chloro-5-(cyclobutylmethyl)spiro[2,4-dihydro-1,5-benzoxazepine-3,1′-tetralin]-7-yl]sulfonylpyrrolidine-1-carboxamide], the Ki in assay [1] (numeric values) was found to be 6 nM. In addition, the IC50 in assay [2] was more than 1000 nM.

As for `CO[C@H]1/C=C/CCC(=O)NS(=O)(=O)c2ccc3c(c2)N(C[C@@H]2CC[C@H]21)C[C@@]1(CCCc2cc(Cl)ccc21)CO3` [Example 75, (3R,6R,7S,8E,21S)-6′-Chloro-7-methoxy-14,14-dioxo-spiro[19-oxa-14-thia-1,13-diazatetracyclo[13.7.2.0˜3,6.0˜18,23]tetracosa-8,15,17,23-tetraene-21,1′-tetralin]-12-one], in assay [1] (class symbols), the Ki was 1 to 100 nM. For the same molecule, the IC50 in assay [2] is more than 1000 nM.

On to `CCN1C/C=C/[C@H](OC(=O)N2CCOCC2)[C@@H]2CC[C@H]2CN2C[C@@]3(CCCc4cc(Cl)ccc43)COc3ccc(cc32)S(=O)(=O)NC(=O)C1(C)C` [Example 221, [(3R,6R,7S,8E,22S)-6′-Chloro-11-ethyl-12,12-dimethyl-13,15,15-trioxo-spiro[20-oxa-15-thia-1,11,14-triazatetracyclo[14.7.2.03,6.019,24]pentacosa-8,16,18,24-tetraene-22,1′-tetralin]-7-yl]morpholine-4-carboxylate], for which the Ki in assay [1] (class symbols) is less than 1 nM. Further, the half-inhibitory concentration (IC50) in assay [2] is less than 500 nM.

For the molecule `CC1(C)OC/C=C/[C@H](O)[C@@H]2CC[C@H]2CN2C[C@@]3(CCCc4cc(Cl)ccc43)COc3ccc(cc32)S(=O)(=O)NC1=O` [Example 32, (3R,6R,7S,8E,22S)-6′-Chloro-7-hydroxy-12,12-dimethyl-15,15-dioxo-spiro[11,20-dioxa-15-thia-1,14-diazatetracyclo[14.7.2.03,6.019,24]pentacosa-8,16,18,24-tetraene-22,1′-tetralin]-13-one], the Ki in assay [1] (class symbols) is less than 1 nM. Besides, in assay [2], the IC50 was less than 500 nM.

In the case of `CC1(C)OC/C=C/[C@@H](OCCN2CCOCC2)[C@@H]2CC[C@H]2CN2C[C@@]3(CCCc4cc(Cl)ccc43)COc3ccc(cc32)S(=O)(=O)NC1=O` [Example 271, (3R,6R,7R,8E,22S)-6′-Chloro-12,12-dimethyl-7-(2-morpholinoethoxy)-15,15-dioxo-spiro[11,20-dioxa-15-thia-1,14-diazatetracyclo[14.7.2.03,6.019,24]pentacosa-8,16,18,24-tetraene-22,1′-tetralin]-13-one], in assay [1] (class symbols), the Ki was less than 1 nM. Also, in assay [2], the IC50 is less than 500 nM.

As to `CC1(C)OC/C=C/[C@H](OC(=O)NC2CC2)[C@@H]2CC[C@H]2CN2C[C@@]3(CCCc4cc(Cl)ccc43)COc3ccc(cc32)S(=O)(=O)NC1=O` [Example 188, [(3R,6R,7S,8E,22S)-6′-Chloro-12,12-dimethyl-13,15,15-trioxo-spiro[11,20-dioxa-15-thia-1,14-diazatetracyclo[14.7.2.03,6.019,24]pentacosa-8,16,18,24-tetraene-22,1′-tetralin]-7-yl] N-cyclopropylcarbamate], in assay [1] (class symbols), the Ki is less than 1 nM. The concentration for half-maximal inhibition (IC50) in assay [2] was less than 500 nM.

On to `[2H]C([2H])([2H])N(C(=O)O[C@H]1/C=C/COC(C)(C)C(=O)NS(=O)(=O)c2ccc3c(c2)N(C[C@@H]2CC[C@H]21)C[C@@]1(CCCc2cc(Cl)ccc21)CO3)C([2H])([2H])[2H]` [Example 47, [(3R,6R,7S,8E,22S)-6′-Chloro-12,12-dimethyl-13,15,15-trioxo-spiro[11,20-dioxa-thia-1,14-diazatetracyclo[14.7.2.03,6.019,24]pentacosa-8,16,18,24-tetraene-22,1′-tetralin]-7-yl] N,N-bis(trideuteriomethyl)carbamate], for which the Ki in assay [1] (class symbols) is less than 1 nM. Also, in assay [2], the IC50 was less than 500 nM.
